Data reported in patent US6492397B1, “N-arylheteroarylalkyl imidazol-2-one compounds for treatment of arteriosclerosis” (Pharmacia Corporation, priority 1991, dated 2002).
Like-named read-outs stand apart in the source and are kept apart here.

Experiments:
[1] = molecular target: smooth muscle angiotensin II receptor; assay: Assay A: Angiotensin II Binding Activity (125I-angiotensin II displacement, rat uterine membrane preparation); details: 50% displacement of specifically bound 125I-AII, rat uterine membranes, 25° C., 60 min
Method: Assay A: Angiotensin II Binding Activity
Compounds of the invention were tested for ability to bind to the smooth muscle angiotensin II receptor using a rat uterine membrane preparation. […] Other chemicals were obtained from Sigma Chemical Co. This assay was carried out according to the method of Douglas et al [Endocrinology, 106, 120-124 (1980)]. Rat uterine membranes were prepared from fresh tissue. All procedures were carried out at 4° C. Uteri were stripped of fat and homogenized in phosphate-buffered saline at pH 7.4 containing 5 mM EDTA. The homogenate was centrifuged at 1500×g for 20 min., and the supernatant was recentrifuged at 100,000×g for 60 min. The pellet was resuspended in buffer consisting of 2 mM EDTA and 50 mM Tris-HCl (pH 7.5) to a final protein concentration of 4 mg/ml. Assay tubes were charged with 0.25 ml of a solution containing 5 mM MgCl2, 2 mM EDTA, 0.5% bovine serum albumin, 50 mM Tris-HCl, pH 7.5 and […] (approximately 10^5 cpm) in the absence or in the presence of unlabelled ligand. The reaction was initiated by the addition of membrane protein and the mixture was incubated at 25° C. for 60 min. The incubation was terminated with ice-cold 50 mM Tris-HCl (pH 7.5) and the mixture was filtered to separate membrane-bound labelled peptide from the free ligand. The incubation tube and filter were washed with ice-cold buffer. Filters were assayed for radioactivity in a Micromedic gamma counter. Nonspecific binding was defined as binding in the presence of 10 μM of unlabelled AII. Specific binding was calculated as total binding minus nonspecific binding. […] Binding data were analyzed by a nonlinear least-squares curve fitting program.

rabbit aortic rings = assay: Assay B: In Vitro Vascular Smooth Muscle Response for AII (antagonist activity in rabbit aortic rings); type: cell-based; details: Oryctolagus cuniculus, test antagonist at 10^-5 M, AII contraction, read-out: Assay B pA2 (converted)
Method: Assay B: In Vitro Vascular Smooth Muscle-Response for AII
The compounds of the invention were tested for antagonist activity in rabbit aortic rings. Male New Zealand white rabbits (2-2.5 kg) were sacrificed using an overdose of pentobarbital and exsanguinated via the carotid arteries. The thoracic aorta was removed, cleaned of adherent fat and connective tissue and then cut into 3-mm ring segments. The endothelium was removed from the rings by gently sliding a rolled-up piece of filter paper into the vessel lumen. The rings were then mounted in a water-jacketed tissue bath, maintained at 37° C., between moveable and fixed ends of a stainless steel wire with the moveable end attached to an FT03 Grass transducer coupled to a Model 7D Grass Polygraph for recording isometric force responses. The bath was filled with 20 ml of oxygenated (95% oxygen/5% carbon dioxide) Krebs solution of the following composition (mM): 130 NaCl, 15 NaHCO3, […], 1.2 NaH2PO4, 1.2 MgSO4, 2.5 CaCl2, and 11.4 glucose. The preparations were equilibrated for one hour before approximately one gram of passive tension was placed on the rings. Angiotensin II concentration-response curves were then recorded (3×10^−10 to 1×10^−5 M). Each concentration of AII was allowed to elicit its maximal contraction, and then AII was washed out repeatedly for 30 minutes before rechallenging with a higher concentration of AII. Aorta rings were exposed to the test antagonist at 10^−5 M for 5 minutes before challenging with AII. Adjacent segments of the same aorta ring were used for all concentration-response curves in the presence or absence of the test antagonist. The effectiveness of the test compound was expressed in terms of pA2 values and were calculated according to H. O. Schild [Br. J. Pharmacol. Chemother., 2,189-206 (1947)]. The PA2 value is the concentration of the antagonist which increases the EC50 value for AII by a factor of two. Each test antagonist was evaluated in aorta rings from two rabbits.

pressor response to AII = assay: Assay C: In Vivo Intragastric Pressor Assay Response for AII Antagonists; set-up: species or system rat; details: for Assay C Duration: Dose: 3 mg/kg (i.g.), Sprague-Dawley rats, AII challenges up to 180 minutes after gavage; for inhibition in vivo at 3 mg/kg: Rattus norvegicus, po
Method: Assay C: In Vivo Intragastric Pressor Assay Response for AII Antagonists
Male Sprague-Dawley rats weighing 225-300 grams were anesthetized with methohexital (30 mg/kg, i.p.) and catheters were implanted into the femoral artery and vein. The catheters were tunneled subcutaneously to exit dorsally, posterior to the head and between the scapulae. The catheters were filled with heparin (1000 units/ml of saline). The rats were returned to their cage and allowed regular rat chow and water ad libitum. After full recovery from surgery (3-4 days), rats were placed in Lucite holders and the arterial line was connected to a pressure transducer. Arterial pressure was recorded on a Gould polygraph (mmHg). Angiotensin II was administered as a 30 ng/kg bolus via the venous catheter delivered in a 50 μl volume with a 0.2 ml saline flush. The pressor response in mm Hg was measured by the difference from pre-injection arterial pressure to the maximum pressure achieved. The AII injection was repeated every 10 minutes until three consecutive injections yielded responses within 4 mmHg of each other. These three responses were then averaged and represented the control response to AII. The test compound was suspended in 0.5% methylcellulose in water and was administered by gavage. The volume administered was 2 ml/kg body weight. The standard dose was 3 mg/kg. Angiotensin II bolus injections were given at 30, 45, 60, 75, 120, 150, and 180 minutes after gavage. The pressor response to AII was measured at each time point. The rats were then returned to their cage for future testing. A minimum of 3 days was allowed between tests. Percent inhibition was calculated for each time point following gavage by the following formula: [(Control Response−Response at time point)/Control Response]×100.

[2] = first value of the pair (aorta rings from two rabbits)
[3] = second value of the pair (aorta rings from two rabbits)

## CCCCc1cn(CC(CC)CC)c(=O)n1Cc1ccc(-c2ccccc2-c2nnn[nH]2)nc1 [Example 20, 1-(2-ethylbutyl)-4-butyl-1,3-dihydro-3-[[6-[2-(1H-tetrazol-5-yl)phenyl]-3-pyridinyl]methyl]-2H-imidazol-2-one]
[1]
  IC50: 16 nM
Rabbit aortic rings; [2]
  Kb: 0.676 nM
Rabbit aortic rings; [3]
  Kb: 1.38 nM
Pressor response to AII
  Assay C Duration: >180 min
  inhibition in vivo at 3 mg/kg: 75%
other
  melting point: 174 to 176 °C (dec.)

## CCCCCn1cc(CCCC)n(Cc2ccc(-c3ccccc3-c3nnn[nH]3)nc2)c1=O [Example 15, 1-pentyl-4-butyl-1,3-dihydro-3-[[6-[2-(1H-tetrazol-5-yl)phenyl]-3-pyridinyl]methyl]-2H-imidazol-2-one]
[1]
  IC50: 10 nM
Rabbit aortic rings; [2]
  Kb: 1.62 nM
Rabbit aortic rings; [3]
  Kb: 1.41 nM
Pressor response to AII
  Assay C Duration: >180 min
  inhibition in vivo at 3 mg/kg: 60%
other
  melting point: 162 to 164 °C

## CCCCc1cn(CC2CCCC2)c(=O)n1Cc1ccc(-c2ccccc2-c2nnn[nH]2)nc1 [Example 24, 1-cyclopentylmethyl-4-butyl-1,3-dihydro-3-[[6-[2-(1H-tetrazol-5-yl)phenyl]-3-pyridinyl]methyl]-2H-imidazol-2-one]
[1]
  IC50: 22 nM
Rabbit aortic rings; [2]
  Kb: 0.646 nM
Rabbit aortic rings; [3]
  Kb: 2.04 nM
Pressor response to AII
  Assay C Duration: >180 min
  inhibition in vivo at 3 mg/kg: 50%
other
  melting point: 204 °C (dec.)

## CCCCc1cn(CCCC)c(=O)n1Cc1ccc(-c2ccccc2-c2nnn[nH]2)nc1 [Example 1, 1,4-dibutyl-1,3-dihydro-3-[[6-[2-(1H-tetrazol-5-yl)phenyl]-3-pyridinyl]methyl]-2H-imidazol-2-one]
[1]
  IC50: 6.5 nM
Rabbit aortic rings; [2]
  Kb: 1.51 nM
Rabbit aortic rings; [3]
  Kb: 2.95 nM
Pressor response to AII
  Assay C Duration: >180 min
  inhibition in vivo at 3 mg/kg: 50%
other
  melting point: 170 to 171 °C

## CCCCc1cn(-c2ccccc2Cl)c(=O)n1Cc1ccc(-c2ccccc2-c2nnn[nH]2)nc1 [Example 32, 1-(2-chlorophenyl)-4-butyl-1,3-dihydro-3-[[6-[2-(1H-tetrazol-5-yl)phenyl]-3-pyridinyl]methyl]-2H-imidazol-2-one]
[1]
  IC50: 5.4 nM
Rabbit aortic rings; [2]
  Kb: 1.58 nM
Rabbit aortic rings; [3]
  Kb: 0.912 nM
Pressor response to AII
  Assay C Duration: >180 min
  inhibition in vivo at 3 mg/kg: 50%
other
  melting point: 81 to 83 °C

## CCCCc1cn(CC(C)(C)C)c(=O)n1Cc1ccc(-c2ccccc2-c2nnn[nH]2)nc1 [Example 18, 1-neopentyl-4-butyl-1,3-dihydro-3-[[6-[2-(1H-tetrazol-5-yl)phenyl]-3-pyridinyl]methyl]-2H-imidazol-2-one]
[1]
  IC50: 12 nM
Rabbit aortic rings; [2]
  Kb: 1.62 nM
Rabbit aortic rings; [3]
  Kb: 2.29 nM
Pressor response to AII
  Assay C Duration: >180 min
  inhibition in vivo at 3 mg/kg: 65%
other
  melting point: 194.5 to 195 °C

## CCCCc1cn(CCC(C)C)c(=O)n1Cc1ccc(-c2ccccc2-c2nnn[nH]2)nc1 [Example 14, 1-isopentyl-4-butyl-1,3-dihydro-3-[[6-[2-(1H-tetrazol-5-yl)phenyl]-3-pyridinyl]methyl]-2H-imidazol-2-one]
[1]
  IC50: 7.6 nM
Rabbit aortic rings; [2]
  Kb: 1.74 nM
Rabbit aortic rings; [3]
  Kb: 2.29 nM
Pressor response to AII
  Assay C Duration: >180 min
  inhibition in vivo at 3 mg/kg: 35%
other
  melting point: 168.5 to 170 °C

## CCCCc1cn(C2CCCCC2)c(=O)n1Cc1ccc(-c2ccccc2-c2nnn[nH]2)nc1 [Example 21, 1-cyclohexyl-4-butyl-1,3-dihydro-3-[[6-[2-(1H-tetrazol-5-yl)phenyl]-3-pyridinyl]methyl]-2H-imidazol-2-one]
[1]
  IC50: 20 nM
Rabbit aortic rings; [2]
  Kb: 0.724 nM
Rabbit aortic rings; [3]
  Kb: 0.708 nM
Pressor response to AII
  Assay C Duration: >180 min
  inhibition in vivo at 3 mg/kg: 40%
other
  melting point: 202 to 203 °C (dec.)

## CCCCc1cn(CCc2cccs2)c(=O)n1Cc1ccc(-c2ccccc2-c2nnn[nH]2)nc1 [Example 25, 1-[2-(2-thienyl)ethyl]-4-butyl-1,3-dihydro-3-[[6-[2-(1H-tetrazol-5-yl)phenyl]-3-pyridinyl]methyl]-2H-imidazol-2-one]
[1]
  IC50: 5 nM
Rabbit aortic rings; [2]
  Kb: 0.389 nM
Rabbit aortic rings; [3]
  Kb: 0.692 nM
Pressor response to AII
  Assay C Duration: >180 min
  inhibition in vivo at 3 mg/kg: 25%
other
  melting point: 137 to 138 °C
